Tests used:
Test in all cases: biochemical
Set-up in all cases: Eurofins recombinant human kinase profiling, remaining kinase activity as % of control, 10 uM ATP
Settings in all cases: ATP 10 uM; read-out: %Ctrl@10 μM
CDK3/cyclinE(h) = CDK3/cyclinE(h) (Homo sapiens, UniProt Q00526)
How it was run: (§1)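 Activity measured in a commercial panel of 401 recombinant human protein kinases run as a kinase profiling service.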

CHK2(R145W)(h) = target: T1, CHK2(R145W)(h) (Homo sapiens, UniProt O96017, R145W)
T1 construct: gene CHEK2
How it was run: as §1

CRIK(h) = target: T2, CRIK(h) (Homo sapiens, UniProt O14578)
T2 construct: gene CIT
How it was run: as §1

CaMKK2(h) = CaMKK2(h) (Homo sapiens, UniProt Q96RR4)
How it was run: as §1

DYRK1A(h) = DYRK1A(h) (Homo sapiens, UniProt Q13627)
How it was run: as §1

ErbB4(h) = ErbB4(h) (Homo sapiens, UniProt Q15303)
How it was run: as §1

HIPK1(h) = HIPK1(h) (Homo sapiens, UniProt Q86Z02)
How it was run: as §1

LOK(h) = target: T3, LOK(h) (Homo sapiens, UniProt O94804)
T3 construct: gene STK10
How it was run: as §1

MAP4K4(h) = MAP4K4(h) (Homo sapiens, UniProt O95819)
How it was run: as §1

NEK3(h) = NEK3(h) (Homo sapiens, UniProt P51956)
How it was run: as §1

PKCμ(h) = target: T4, PKCμ(h) (Homo sapiens, UniProt Q15139)
T4 construct: gene PRKD1
How it was run: as §1

PKD2(h) = target: T5, PKD2(h) (Homo sapiens, UniProt Q9BZL6)
T5 construct: gene PRKD2
How it was run: as §1

PRAK(h) = target: T6, PRAK(h) (Homo sapiens, UniProt Q8IW41)
T6 construct: gene MAPKAPK5
How it was run: as §1

Plk3(h) = Plk3(h) (Homo sapiens, UniProt Q9H4B4)
How it was run: as §1

ROCK-I(h) = target: T7, ROCK-I(h) (Homo sapiens, UniProt Q13464)
T7 construct: gene ROCK1
How it was run: as §1

SGK2(h) = SGK2(h) (Homo sapiens, UniProt Q9HBY8)
How it was run: as §1

SGK3(h) = SGK3(h) (Homo sapiens, UniProt Q96BR1)
How it was run: as §1

SIK3(h) = SIK3(h) (Homo sapiens, UniProt Q9Y2K2)
How it was run: as §1

Src(1-530)(h) = target: T8, Src(1-530)(h) (Homo sapiens, UniProt P12931)
T8 construct: residues 1-530
How it was run: as §1

Tec(h) activated = Tec(h) activated (Homo sapiens, UniProt P42680)
How it was run: as §1

ULK1(h) = ULK1(h) (Homo sapiens, UniProt O75385)
How it was run: as §1

ZIPK(h) = target: T9, ZIPK(h) (Homo sapiens, UniProt O43293)
T9 construct: gene DAPK3
How it was run: as §1

cKit(D816H)(h) = target: T10, cKit(D816H)(h) (Homo sapiens, UniProt P10721, D816H)
T10 construct: gene KIT
How it was run: as §1

T1 sequence (O96017 whole entry R145W): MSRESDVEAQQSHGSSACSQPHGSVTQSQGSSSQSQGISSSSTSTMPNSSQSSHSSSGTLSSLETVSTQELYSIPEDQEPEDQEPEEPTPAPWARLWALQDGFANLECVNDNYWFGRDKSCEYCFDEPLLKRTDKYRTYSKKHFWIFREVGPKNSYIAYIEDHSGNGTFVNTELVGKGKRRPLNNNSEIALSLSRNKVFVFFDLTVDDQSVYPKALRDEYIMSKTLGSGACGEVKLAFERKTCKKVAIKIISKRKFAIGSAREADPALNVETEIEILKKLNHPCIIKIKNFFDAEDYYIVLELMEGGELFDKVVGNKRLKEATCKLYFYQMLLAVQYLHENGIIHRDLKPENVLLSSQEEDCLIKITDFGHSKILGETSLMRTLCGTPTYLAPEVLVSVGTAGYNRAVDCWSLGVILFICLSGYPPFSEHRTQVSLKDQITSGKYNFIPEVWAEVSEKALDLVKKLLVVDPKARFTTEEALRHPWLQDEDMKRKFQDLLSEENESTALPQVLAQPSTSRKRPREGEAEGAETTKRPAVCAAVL
T10 sequence (P10721 whole entry D816H): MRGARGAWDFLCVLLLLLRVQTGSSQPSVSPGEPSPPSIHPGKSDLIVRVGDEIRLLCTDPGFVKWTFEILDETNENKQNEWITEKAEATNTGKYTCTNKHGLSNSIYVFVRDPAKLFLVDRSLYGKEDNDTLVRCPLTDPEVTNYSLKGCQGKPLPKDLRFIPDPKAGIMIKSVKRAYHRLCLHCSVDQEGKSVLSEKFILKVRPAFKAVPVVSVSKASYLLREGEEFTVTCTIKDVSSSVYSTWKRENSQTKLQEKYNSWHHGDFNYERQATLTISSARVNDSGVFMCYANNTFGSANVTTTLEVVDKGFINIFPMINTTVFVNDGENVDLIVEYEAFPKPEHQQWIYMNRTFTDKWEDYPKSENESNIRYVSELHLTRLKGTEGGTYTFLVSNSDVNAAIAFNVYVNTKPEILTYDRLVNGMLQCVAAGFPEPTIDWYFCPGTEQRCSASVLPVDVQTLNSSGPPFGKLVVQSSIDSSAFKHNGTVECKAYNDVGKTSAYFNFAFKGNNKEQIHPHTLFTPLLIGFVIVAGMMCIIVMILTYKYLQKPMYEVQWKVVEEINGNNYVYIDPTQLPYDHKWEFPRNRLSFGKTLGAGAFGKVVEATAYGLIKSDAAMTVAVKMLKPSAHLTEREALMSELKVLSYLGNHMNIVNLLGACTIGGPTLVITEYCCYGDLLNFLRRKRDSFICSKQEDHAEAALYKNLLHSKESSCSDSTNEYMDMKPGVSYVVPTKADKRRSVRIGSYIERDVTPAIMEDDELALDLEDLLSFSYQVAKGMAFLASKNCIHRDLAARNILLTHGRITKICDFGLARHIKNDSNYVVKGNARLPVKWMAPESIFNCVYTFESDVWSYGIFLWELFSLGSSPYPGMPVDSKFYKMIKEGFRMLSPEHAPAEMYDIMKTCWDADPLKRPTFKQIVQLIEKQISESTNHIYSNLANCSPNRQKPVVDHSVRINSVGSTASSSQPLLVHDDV
Chain of HIPK1(h) (Q86Z02 whole entry): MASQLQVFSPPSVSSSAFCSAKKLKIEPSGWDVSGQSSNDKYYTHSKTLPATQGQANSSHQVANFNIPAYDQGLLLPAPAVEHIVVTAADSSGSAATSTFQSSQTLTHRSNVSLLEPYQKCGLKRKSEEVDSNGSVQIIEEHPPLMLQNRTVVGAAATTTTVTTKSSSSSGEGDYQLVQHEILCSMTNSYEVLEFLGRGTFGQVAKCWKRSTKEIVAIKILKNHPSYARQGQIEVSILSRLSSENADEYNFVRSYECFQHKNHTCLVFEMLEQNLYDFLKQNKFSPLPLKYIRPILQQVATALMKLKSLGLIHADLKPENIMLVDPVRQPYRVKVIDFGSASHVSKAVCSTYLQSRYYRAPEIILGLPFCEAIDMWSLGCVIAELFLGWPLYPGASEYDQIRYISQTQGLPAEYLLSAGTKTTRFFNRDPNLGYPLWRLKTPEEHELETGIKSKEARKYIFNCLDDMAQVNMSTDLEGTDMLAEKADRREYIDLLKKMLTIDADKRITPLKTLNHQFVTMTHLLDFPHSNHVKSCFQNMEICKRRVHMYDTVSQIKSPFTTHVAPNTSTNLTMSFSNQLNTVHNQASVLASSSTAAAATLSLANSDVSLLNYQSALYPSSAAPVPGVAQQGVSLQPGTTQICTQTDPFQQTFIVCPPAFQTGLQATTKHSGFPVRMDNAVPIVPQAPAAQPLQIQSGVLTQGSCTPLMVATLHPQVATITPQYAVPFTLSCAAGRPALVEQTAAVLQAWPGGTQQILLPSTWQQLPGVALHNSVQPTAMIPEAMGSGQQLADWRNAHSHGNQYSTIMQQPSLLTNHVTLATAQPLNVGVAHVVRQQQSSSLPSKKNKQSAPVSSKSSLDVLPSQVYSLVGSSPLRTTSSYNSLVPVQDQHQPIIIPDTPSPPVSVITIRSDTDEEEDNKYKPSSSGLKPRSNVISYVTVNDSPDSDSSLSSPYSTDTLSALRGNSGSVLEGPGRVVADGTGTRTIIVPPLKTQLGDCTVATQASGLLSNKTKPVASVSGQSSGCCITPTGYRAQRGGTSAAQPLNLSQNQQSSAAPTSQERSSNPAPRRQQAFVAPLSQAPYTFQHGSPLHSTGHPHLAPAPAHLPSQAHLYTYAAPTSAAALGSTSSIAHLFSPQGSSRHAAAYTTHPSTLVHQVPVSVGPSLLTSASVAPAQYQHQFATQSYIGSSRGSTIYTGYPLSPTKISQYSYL
Chain of CaMKK2(h) (Q96RR4 whole entry): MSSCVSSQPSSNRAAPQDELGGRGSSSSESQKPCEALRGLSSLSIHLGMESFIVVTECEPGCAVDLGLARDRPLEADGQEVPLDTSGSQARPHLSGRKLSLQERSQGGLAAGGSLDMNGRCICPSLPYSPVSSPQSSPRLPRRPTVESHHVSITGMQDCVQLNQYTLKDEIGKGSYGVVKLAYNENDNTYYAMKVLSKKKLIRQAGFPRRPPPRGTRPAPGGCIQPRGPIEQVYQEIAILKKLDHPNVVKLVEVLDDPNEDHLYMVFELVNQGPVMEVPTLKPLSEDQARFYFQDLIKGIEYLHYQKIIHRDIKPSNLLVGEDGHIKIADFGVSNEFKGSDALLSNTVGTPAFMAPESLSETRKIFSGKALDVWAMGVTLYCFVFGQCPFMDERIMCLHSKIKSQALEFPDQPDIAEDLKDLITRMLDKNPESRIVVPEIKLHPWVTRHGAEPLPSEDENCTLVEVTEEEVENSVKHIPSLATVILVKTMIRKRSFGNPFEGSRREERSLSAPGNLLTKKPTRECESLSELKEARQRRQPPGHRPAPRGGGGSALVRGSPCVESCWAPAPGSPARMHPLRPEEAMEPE
T6 sequence (Q8IW41 whole entry): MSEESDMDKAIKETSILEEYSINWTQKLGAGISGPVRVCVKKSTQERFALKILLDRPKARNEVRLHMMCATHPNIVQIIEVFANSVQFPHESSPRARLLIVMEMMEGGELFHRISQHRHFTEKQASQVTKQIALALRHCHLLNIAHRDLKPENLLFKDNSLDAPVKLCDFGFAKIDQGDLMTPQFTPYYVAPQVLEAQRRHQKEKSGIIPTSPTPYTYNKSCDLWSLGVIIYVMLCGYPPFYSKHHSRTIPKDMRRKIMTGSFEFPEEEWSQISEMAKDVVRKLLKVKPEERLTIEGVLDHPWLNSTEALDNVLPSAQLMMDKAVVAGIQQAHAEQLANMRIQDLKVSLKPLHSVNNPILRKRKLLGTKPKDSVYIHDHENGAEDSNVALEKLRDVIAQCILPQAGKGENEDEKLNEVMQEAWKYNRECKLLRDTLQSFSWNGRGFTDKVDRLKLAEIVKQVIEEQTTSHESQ
Chain of MAP4K4(h) (O95819 whole entry): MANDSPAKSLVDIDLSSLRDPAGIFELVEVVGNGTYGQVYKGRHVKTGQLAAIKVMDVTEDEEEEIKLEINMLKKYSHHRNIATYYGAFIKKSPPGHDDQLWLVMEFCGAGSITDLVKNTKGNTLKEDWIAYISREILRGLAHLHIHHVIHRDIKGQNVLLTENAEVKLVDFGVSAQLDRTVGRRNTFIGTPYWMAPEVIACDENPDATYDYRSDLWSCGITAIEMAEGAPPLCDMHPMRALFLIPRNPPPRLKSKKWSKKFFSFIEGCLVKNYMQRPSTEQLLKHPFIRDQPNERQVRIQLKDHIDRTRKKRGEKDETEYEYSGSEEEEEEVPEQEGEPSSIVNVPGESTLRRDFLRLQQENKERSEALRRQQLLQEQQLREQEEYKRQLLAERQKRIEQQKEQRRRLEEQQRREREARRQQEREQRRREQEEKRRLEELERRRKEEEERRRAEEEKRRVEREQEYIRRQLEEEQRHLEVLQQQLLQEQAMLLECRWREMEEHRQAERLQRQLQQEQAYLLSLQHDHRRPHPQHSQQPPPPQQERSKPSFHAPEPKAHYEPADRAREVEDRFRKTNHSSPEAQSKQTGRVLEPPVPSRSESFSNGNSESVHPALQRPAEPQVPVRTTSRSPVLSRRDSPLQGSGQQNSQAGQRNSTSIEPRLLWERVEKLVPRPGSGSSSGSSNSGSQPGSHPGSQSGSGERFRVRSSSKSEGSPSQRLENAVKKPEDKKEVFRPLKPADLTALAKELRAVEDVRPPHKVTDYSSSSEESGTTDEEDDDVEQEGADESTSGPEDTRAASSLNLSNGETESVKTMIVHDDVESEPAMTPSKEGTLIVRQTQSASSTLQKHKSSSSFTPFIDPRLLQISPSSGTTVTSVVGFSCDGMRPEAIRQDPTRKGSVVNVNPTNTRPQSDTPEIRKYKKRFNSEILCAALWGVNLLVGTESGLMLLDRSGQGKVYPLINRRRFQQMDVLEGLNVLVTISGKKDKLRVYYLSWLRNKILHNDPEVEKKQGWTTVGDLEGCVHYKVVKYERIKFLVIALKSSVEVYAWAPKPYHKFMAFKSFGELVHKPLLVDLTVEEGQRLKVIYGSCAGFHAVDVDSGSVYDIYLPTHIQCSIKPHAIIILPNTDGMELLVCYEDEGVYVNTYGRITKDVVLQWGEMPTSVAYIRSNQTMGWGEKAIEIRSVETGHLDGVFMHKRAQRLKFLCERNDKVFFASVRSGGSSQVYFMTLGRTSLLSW

For `C1=C(c2nc(-c3cnn(C4CCNCC4)c3)cn3cc(-c4ccccc4)nc23)CCOC1` [YL-939], the remaining activity at 10 µM (CDK3/cyclinE(h)) was 102%, the remaining activity at 10 µM (CHK2(R145W)(h)) was 98% and the remaining activity at 10 µM (CRIK(h)) was 101%. It also gave a remaining activity at 10 µM (CaMKK2(h)) of 83%, a remaining activity at 10 µM (DYRK1A(h)) of 83% and a remaining activity at 10 µM (ErbB4(h)) of 99%. For the same compound, the remaining activity at 10 µM (HIPK1(h)) was 97%, the remaining activity at 10 µM (LOK(h)) was 95% and the remaining activity at 10 µM (MAP4K4(h)) was 86%. The remaining activity at 10 µM (NEK3(h)) was 102%, the remaining activity at 10 µM (PKCμ(h)) was 77% and the remaining activity at 10 µM (PKD2(h)) was 89%. It also gave a remaining activity at 10 µM (PRAK(h)) of 144%, a remaining activity at 10 µM (Plk3(h)) of 103% and a remaining activity at 10 µM (ROCK-I(h)) of 94%. The remaining activity at 10 µM (SGK2(h)) was 96%, the remaining activity at 10 µM (SGK3(h)) was 83% and the remaining activity at 10 µM (SIK3(h)) was 84%. For the same compound, the remaining activity at 10 µM (Src(1-530)(h)) was 85%, the remaining activity at 10 µM (Tec(h) activated) was 70% and the remaining activity at 10 µM (ULK1(h)) was 65%. For the same compound, the remaining activity at 10 µM (ZIPK(h)) was 88% and the remaining activity at 10 µM (cKit(D816H)(h)) was 90%.
